# Where two headings read alike, the source gives them in different places.
# Experiments:
# [1] = molecular target: T1, Adenosine receptor A2a, ADORA2A (h) (Homo sapiens, UniProt P29274); assay: IPP ADORA2A binding (agonist radioligand); details: IPP screening at 100 uM; control NECA
# T1 construct: purchased Eurofins Cerep (SafetyScreen44-based IPP panel)
# mouse = details: ref SCCS; cited from earlier work
# [2] = molecular target: Potassium voltage-gated channel subfamily H member 2 hERG, KCNH2 (h) (Homo sapiens, UniProt Q12809)
# [3] = molecular target: T2, Pregnane X receptor PXR, NR1I2 (h) (Homo sapiens, UniProt O75469)
# T2 sequence (O75469 1-434): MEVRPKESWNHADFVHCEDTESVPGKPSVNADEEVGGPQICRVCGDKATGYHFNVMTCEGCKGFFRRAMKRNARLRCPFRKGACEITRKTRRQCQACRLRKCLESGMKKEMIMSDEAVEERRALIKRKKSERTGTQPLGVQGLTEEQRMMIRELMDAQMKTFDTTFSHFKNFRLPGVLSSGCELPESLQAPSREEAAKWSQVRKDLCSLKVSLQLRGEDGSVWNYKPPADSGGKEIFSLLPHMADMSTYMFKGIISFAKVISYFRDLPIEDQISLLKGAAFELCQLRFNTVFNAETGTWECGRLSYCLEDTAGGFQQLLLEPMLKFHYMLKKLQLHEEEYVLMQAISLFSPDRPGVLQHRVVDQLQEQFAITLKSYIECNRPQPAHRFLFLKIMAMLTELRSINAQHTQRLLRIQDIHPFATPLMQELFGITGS
# [4] = molecular target: T3, Constitutive androstane receptor CAR, NR1I3 (h) (Homo sapiens, UniProt Q14994); type: biochemical
# T3 sequence (Q14994 1-352): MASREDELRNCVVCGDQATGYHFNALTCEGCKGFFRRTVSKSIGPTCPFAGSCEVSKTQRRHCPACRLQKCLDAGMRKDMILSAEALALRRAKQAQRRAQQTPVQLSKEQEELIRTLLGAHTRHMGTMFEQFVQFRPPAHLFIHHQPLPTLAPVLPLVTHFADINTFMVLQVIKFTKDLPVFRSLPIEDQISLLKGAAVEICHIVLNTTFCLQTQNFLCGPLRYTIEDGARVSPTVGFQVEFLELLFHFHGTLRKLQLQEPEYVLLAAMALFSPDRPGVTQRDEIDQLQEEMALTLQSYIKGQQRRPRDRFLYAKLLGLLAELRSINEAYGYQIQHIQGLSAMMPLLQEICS
# [5] = test system: Sodium channel protein type 5 subunit alpha (site 2), SCN5A (r); type: binding, rat; details: IPP screening at 100 uM; control veratridine
# [6] = test system: Glutamate receptor ionotropic NMDA 1 non-selective, GRIN1 (r); details: IPP screening at 100 uM; control CGS 19755
# [7] = test system: Gamma-aminobutyric acid receptor subunit alpha-1 BZD site, GABRA1A (r); type: binding, rat; details: IPP screening at 100 uM; control diazepam
# [8] = test system: Potassium Voltage-Gated Channel Kv non-selective, KCNQ1 (r); assay: IPP KCNQ1 binding (antagonist radioligand); set-up: species or system rat
# [9] = test system: Thyroid hormone receptor alpha, THRA (h); assay: IPP THRA coactivator recruitment (agonist); type: biochemical, human; details: 100 uM; agonist; T3; * denotes assay interference (2-Amino-6-chloro-4-nitrophenol, HC Red 3)
# [10] = human
# HepG2 cells [11] = assay: Cell stress panel (CSP), 24 h, 8 concentrations, BIFROST global PoD; type: cell-based; details: HepG2; cell stress panel PoD
# Procedure: Compounds were tested using the previously developed cell stress panel ([Hatherell et al. 2020]) and the expanded biomarker panel outlined in Middleton et al. HepG2 cells were treated with all compounds for 24 h across 8 concentrations prior to biomarker analysis. The same plate layout and number of replicates (3 biological and 2 technical) were used as previously for each assay within the panel.
# Tubulin (r) = assay: IPP Tubulin binding; set-up: species or system rat; details: 100 uM; ligand/control Colchicine
# HepG2 cells [12] = assay: High-throughput transcriptomics (HTTr, TempO-Seq), HepG2, 24 h; type: cell-based, human; details: HepG2
# Procedure: (§1) HepG2, HepaRG, and MCF7 cells were treated with each compound for 24 h across a dose range of 7 concentrations and lysed using TempO-Seq lysis buffer (BioSpyder Technologies, proprietary kit, see [Middleton et al. 2022] for method details). Sequencing was performed using TempO-Seq (BioClavis) version 2 of the human whole transcriptome panel and analyzed as described previously in Middleton et al.
# HepaRG cells = assay: High-throughput transcriptomics (HTTr, TempO-Seq), HepaRG, 24 h; type: cell-based, human
# Procedure: as §1
# [13] = human; remark: listed apart in the source
# [14] = molecular target: vitamin K epoxide reductase enzyme (VKORC1); details: ref Bevans et al. 2013, cited from earlier work
# [15] = PBK input, level L2; ref [10]; cited from earlier work
# [16] = molecular target: Voltage-dependent L-type Ca2+ channel (dihydropyridine site), CACNA1C (r) (Rattus norvegicus, UniProt P22002); type: binding; details: IPP screening at 100 uM; control nitrendipine
# [17] = human, cited from earlier work
# [18] = PBK model plasma Cmax estimate (Gastroplus 9.8; levels L1, L2, L3); set-up: species or system human; details: therapeutic uses
# MCF7 cells = assay: High-throughput transcriptomics (HTTr, TempO-Seq), MCF7, 24 h; type: cell-based, human; details: MCF-7
# Procedure: as §1
# [19] = PO 15 mg, tablet, 8 male, Fasted, calibration, ref Stirling Y, et al. British Journal of Haematology (1982) 51: 37-46
# T1 sequence (P29274 whole entry): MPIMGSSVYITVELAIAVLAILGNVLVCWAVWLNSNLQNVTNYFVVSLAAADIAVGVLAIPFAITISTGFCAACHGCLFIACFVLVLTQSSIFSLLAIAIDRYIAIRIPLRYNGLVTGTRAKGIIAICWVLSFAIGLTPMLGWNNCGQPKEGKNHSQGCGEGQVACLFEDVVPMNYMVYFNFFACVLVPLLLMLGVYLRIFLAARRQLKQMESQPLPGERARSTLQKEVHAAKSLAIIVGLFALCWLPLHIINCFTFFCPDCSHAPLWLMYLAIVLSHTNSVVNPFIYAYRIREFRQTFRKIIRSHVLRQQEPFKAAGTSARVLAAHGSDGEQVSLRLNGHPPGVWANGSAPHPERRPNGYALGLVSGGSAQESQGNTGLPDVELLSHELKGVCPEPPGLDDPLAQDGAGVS
# Chain of Potassium voltage-gated channel subfamily H member 2 hERG, KCNH2 (h) (Q12809 whole entry): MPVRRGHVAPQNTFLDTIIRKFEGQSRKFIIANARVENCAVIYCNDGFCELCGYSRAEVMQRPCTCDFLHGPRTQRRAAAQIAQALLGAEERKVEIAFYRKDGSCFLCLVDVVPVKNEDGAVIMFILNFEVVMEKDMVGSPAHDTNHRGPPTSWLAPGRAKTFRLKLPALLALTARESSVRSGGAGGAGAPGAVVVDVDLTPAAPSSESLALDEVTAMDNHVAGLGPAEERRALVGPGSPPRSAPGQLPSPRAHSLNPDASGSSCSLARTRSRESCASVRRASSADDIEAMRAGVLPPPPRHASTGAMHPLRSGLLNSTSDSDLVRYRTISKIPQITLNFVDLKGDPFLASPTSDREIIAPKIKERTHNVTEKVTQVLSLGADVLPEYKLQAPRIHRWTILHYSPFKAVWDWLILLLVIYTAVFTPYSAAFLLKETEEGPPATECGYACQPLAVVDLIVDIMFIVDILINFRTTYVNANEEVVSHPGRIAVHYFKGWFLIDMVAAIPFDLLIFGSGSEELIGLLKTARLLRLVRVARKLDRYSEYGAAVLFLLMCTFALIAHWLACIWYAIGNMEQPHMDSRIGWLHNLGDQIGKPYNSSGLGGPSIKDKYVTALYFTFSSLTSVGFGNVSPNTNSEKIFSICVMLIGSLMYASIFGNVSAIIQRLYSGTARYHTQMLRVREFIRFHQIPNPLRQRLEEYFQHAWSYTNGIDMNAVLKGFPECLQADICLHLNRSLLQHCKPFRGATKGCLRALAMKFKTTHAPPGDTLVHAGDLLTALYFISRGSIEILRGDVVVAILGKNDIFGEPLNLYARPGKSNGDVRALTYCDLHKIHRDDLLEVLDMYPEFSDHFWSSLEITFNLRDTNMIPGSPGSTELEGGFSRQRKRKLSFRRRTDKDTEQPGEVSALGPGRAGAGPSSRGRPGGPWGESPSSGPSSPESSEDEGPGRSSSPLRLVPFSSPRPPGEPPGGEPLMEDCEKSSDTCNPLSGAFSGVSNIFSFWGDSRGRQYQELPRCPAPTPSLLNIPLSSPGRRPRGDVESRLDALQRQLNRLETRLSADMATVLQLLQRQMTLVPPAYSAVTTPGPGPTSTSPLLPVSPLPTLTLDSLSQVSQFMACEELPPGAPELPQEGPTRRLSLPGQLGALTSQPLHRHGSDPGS
# Chain of Voltage-dependent L-type Ca2+ channel (dihydropyridine site), CACNA1C (r) (P22002 whole entry): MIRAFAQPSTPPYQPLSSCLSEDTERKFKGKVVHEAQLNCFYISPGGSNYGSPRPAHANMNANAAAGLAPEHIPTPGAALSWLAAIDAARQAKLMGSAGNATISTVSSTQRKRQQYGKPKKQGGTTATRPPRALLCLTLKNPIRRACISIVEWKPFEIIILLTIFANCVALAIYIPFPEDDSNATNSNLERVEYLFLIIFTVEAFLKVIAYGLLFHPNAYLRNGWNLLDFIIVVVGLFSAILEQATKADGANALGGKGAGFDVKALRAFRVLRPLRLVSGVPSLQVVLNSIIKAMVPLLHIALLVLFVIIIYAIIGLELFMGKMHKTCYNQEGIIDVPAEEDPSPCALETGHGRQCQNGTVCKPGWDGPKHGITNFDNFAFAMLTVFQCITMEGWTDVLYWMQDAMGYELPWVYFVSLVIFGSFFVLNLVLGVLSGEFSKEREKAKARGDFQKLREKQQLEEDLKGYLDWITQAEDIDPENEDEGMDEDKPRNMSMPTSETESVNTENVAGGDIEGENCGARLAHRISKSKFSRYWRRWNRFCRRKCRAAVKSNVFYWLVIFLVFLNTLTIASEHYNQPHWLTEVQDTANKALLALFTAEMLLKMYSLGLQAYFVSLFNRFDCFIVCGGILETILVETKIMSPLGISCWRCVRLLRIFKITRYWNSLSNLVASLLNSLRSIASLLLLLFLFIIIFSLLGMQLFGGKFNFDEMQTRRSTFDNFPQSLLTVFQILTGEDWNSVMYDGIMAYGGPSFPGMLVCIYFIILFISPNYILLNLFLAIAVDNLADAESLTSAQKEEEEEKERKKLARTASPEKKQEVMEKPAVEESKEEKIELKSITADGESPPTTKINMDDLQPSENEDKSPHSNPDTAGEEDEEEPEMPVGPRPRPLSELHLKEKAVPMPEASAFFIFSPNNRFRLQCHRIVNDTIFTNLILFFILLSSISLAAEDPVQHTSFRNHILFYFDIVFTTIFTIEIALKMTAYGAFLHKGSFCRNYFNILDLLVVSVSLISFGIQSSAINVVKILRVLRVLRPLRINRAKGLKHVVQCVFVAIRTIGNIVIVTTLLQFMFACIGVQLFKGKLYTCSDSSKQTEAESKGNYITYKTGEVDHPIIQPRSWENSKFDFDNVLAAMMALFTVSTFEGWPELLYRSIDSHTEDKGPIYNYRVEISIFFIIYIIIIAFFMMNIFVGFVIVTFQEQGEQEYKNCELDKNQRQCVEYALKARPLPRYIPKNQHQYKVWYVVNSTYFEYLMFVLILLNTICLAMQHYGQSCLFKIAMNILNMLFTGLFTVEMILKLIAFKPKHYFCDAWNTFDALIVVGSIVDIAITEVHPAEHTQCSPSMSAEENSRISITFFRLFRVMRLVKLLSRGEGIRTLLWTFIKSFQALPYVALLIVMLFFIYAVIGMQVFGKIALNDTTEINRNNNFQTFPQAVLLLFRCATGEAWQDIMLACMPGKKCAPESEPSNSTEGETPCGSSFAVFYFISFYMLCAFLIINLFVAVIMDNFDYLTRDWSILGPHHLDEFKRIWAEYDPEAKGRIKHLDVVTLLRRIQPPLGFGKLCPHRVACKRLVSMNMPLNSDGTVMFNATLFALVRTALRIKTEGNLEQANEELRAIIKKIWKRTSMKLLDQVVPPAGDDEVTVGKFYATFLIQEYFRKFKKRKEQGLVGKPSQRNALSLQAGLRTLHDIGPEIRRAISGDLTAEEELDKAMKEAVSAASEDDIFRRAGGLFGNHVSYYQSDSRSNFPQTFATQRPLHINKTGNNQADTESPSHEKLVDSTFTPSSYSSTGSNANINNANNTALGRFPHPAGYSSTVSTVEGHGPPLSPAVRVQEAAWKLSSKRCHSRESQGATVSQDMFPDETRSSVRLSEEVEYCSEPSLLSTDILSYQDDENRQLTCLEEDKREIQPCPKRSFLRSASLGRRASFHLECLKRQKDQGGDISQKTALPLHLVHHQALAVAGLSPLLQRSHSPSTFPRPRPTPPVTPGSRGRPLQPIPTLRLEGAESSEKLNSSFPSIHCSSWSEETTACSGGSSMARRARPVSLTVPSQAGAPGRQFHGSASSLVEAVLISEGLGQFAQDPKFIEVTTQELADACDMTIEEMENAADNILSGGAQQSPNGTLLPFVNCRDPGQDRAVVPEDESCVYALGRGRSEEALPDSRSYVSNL
smiles,measurement,setting,value
"Nc1ccc(NCCO)c([N+](=O)[O-])c1 [HC Red 3, 2-(4-Amino-2-nitroanilino)ethan-1-ol]",Specific binding,[1],18.0%
same,NOAEL before adjustment for 5 day dosing regimen,mouse,NOAEL of 125 mkd adjusted for 5 day dosing regimen. 90 mkd used as critical PoD by SCCS
same,"IPP screening %, Specific binding","[2]; 100 uM, [3H] Dofetilide, control Terfenadine",16.3%
same,IPP Dose Response PoD: PXR antagonist,[3],"[4.11, 6.71]"
same,IPP Dose Response PoD: CAR antagonist effect,[4],"[29.7,46.9]"
same,Specific binding,[5],38.7%
same,Specific binding,[6],0.4%
same,Specific binding,[7],16.3%
same,Specific binding,"[8]; IPP screening at 100 uM, control α-dendrotoxin",-2.7%
same,"IPP screening %, Coactivator recruitment",[9],628.0* %
same,risk,[10],0
same,pod_cell_stress PoD,HepG2 cells [11],1.583 µM
same,"IPP screening %, Specific binding",Tubulin (r),-13.0%
"CC(=O)CC(c1ccccc1)c1c([O-])c2ccccc2oc1=O.[Na+] (stereo not shown) [Warfarin, Sodium 2-oxo-3-(3-oxo-1-phenylbutyl)-2H-1-benzopyran-4-olate]",pod_httr_bifrost PoD,HepG2 cells [12]; HTTr BIFROST PoD,14.2833 µM
same,podl_path_minbmd PoD,HepG2 cells [12]; HTTr minimum pathway BMD(L),164.109 µM
same,Specific binding,[1],-14.2%
same,HepaRG minimum pathway BMDL,"HepaRG cells; BMDExpress2, highest of the chemical's PoDs",259 µM
same,pod_httr_bifrost PoD,"HepaRG cells; HepaRG, HTTr BIFROST PoD",13.5544 µM
same,podl_path_minbmd PoD,"HepaRG cells; HepaRG, HTTr minimum pathway BMD(L)",258.74 µM
same,HepaRG BIFROST global PoD,HepaRG cells; lowest of the chemical's PoDs,13.6 µM
same,"IPP screening %, Specific binding",[2]; human,10.1%
same,Intrinsic Liver Clearance,[13],14.41 L/h
same,IC50,"[14]; read-out: IC50 on the VKORC1 enzyme, lower end of literature range",0.0247 µM
same,IC50,"[14]; read-out: IC50 on the VKORC1 enzyme, upper end of literature range",4 µM
same,Fup,[15],2%
same,Specific binding,[16],-1.9%
same,Specific binding,[5],0.7%
same,Specific binding,[6],7.9%
same,Reported AUC0-t,[17]; [19],54300 ng·h/mL
same,Reported cmax,[17]; [19],1.305 µg/mL
same,Reported tmax,[17]; [19],1 h
same,Cmax,"[17]; read-out: typical Cmax reported in the literature, ref literature, not specified",0.6 to 6 µM
same,Specific binding,[7],0.6%
same,Specific binding,[8],7.0%
same,"IPP screening %, Coactivator recruitment",[9],-2.0%
same,underprediction of the L3 result at L2 (Cmax),[18],≥ 5 fold
same,pod_cell_stress PoD,HepG2 cells [11],13.7726 µM
same,pod_httr_bifrost PoD,MCF7 cells; HTTr BIFROST PoD,19.7041 µM
same,podl_path_minbmd PoD,MCF7 cells; HTTr minimum pathway BMD(L),167.012 µM
same,"IPP screening %, Specific binding",Tubulin (r),3.0%
